The record followed here is PMC9611727, “Optimization of a Novel Mandelamide-Derived Pyrrolopyrimidine Series of PERK Inhibitors” (Pharmaceutics, 2022).

Test in all cases: scanMAX kinase panel
Holding throughout (type): binding

Test [1] deals with T1, BLK (Homo sapiens, UniProt P51451).
T1 construct: purchased DiscoverX scanMAX
To be noted: read-out: % Control; for remaining binding at 1 µM: 1000 nM. The text has this: (§1) Supplemental Table S2. scanMAXSM Kinome Assay Results. Complete tabulated data of all 468 kinases from the panel, including
(§2) 403 wild-type and 65 mutant isoforms. […] Cmpd 11 and Cmpd 24

The target in test [2] is T2, CAMK4 (Homo sapiens, UniProt Q16566).
T2 construct: purchased DiscoverX scanMAX
T2 sequence (Q16566 1-473): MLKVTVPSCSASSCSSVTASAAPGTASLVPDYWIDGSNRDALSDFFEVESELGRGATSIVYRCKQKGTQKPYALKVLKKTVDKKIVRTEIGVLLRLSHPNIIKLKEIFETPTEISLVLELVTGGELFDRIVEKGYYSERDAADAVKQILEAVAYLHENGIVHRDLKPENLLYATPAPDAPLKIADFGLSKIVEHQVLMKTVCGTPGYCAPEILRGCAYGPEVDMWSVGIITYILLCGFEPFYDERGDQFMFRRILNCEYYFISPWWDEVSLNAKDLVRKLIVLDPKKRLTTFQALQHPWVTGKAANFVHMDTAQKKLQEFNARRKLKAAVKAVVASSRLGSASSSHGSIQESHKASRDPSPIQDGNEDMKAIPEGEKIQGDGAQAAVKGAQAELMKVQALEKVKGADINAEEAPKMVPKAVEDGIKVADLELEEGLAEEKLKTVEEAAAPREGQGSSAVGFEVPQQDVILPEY
The conditions noted are these: read-out: % Control; for remaining binding at 1 µM: 1000 nM.
Text: as §1, §2

For test [3], the target named is T3, EPHB6 (Homo sapiens, UniProt O15197).
T3 construct: purchased DiscoverX scanMAX
T3 sequence (O15197 32-1021): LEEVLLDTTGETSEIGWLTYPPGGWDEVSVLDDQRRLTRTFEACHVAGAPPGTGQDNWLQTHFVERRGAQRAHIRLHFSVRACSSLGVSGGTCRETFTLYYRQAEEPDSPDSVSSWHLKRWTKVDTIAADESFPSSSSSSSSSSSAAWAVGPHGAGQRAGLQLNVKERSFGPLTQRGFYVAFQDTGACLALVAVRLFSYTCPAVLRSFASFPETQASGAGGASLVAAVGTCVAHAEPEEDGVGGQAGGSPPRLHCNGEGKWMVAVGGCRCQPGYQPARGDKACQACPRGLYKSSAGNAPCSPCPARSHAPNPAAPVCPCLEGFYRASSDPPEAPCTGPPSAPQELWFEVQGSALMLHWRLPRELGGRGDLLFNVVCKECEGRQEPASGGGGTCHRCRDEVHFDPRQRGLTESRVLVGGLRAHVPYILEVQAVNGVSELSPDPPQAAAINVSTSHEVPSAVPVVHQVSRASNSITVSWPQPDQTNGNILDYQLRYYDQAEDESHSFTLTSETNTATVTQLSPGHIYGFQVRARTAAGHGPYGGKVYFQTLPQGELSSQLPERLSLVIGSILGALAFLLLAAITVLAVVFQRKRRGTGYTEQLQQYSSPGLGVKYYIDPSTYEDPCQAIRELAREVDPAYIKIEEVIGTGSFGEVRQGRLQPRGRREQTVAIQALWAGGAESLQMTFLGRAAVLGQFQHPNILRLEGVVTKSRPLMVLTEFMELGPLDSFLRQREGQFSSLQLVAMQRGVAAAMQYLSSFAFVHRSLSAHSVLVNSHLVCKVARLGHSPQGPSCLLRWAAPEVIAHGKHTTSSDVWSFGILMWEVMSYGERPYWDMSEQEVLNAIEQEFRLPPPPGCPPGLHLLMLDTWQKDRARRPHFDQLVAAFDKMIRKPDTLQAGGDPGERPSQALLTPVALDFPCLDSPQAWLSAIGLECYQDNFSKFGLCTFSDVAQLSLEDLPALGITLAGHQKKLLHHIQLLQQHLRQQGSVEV
The conditions noted are these: read-out: % Control; for remaining binding at 1 µM: 1000 nM.
Text: as §1, §2

The test system of test [4] is FLT3(ITD,D835V).
Text: as §1, §2

Test [5] deals with T4, PDGFRB (Homo sapiens, UniProt P09619).
T4 construct: purchased DiscoverX scanMAX
T4 sequence (P09619 33-1106): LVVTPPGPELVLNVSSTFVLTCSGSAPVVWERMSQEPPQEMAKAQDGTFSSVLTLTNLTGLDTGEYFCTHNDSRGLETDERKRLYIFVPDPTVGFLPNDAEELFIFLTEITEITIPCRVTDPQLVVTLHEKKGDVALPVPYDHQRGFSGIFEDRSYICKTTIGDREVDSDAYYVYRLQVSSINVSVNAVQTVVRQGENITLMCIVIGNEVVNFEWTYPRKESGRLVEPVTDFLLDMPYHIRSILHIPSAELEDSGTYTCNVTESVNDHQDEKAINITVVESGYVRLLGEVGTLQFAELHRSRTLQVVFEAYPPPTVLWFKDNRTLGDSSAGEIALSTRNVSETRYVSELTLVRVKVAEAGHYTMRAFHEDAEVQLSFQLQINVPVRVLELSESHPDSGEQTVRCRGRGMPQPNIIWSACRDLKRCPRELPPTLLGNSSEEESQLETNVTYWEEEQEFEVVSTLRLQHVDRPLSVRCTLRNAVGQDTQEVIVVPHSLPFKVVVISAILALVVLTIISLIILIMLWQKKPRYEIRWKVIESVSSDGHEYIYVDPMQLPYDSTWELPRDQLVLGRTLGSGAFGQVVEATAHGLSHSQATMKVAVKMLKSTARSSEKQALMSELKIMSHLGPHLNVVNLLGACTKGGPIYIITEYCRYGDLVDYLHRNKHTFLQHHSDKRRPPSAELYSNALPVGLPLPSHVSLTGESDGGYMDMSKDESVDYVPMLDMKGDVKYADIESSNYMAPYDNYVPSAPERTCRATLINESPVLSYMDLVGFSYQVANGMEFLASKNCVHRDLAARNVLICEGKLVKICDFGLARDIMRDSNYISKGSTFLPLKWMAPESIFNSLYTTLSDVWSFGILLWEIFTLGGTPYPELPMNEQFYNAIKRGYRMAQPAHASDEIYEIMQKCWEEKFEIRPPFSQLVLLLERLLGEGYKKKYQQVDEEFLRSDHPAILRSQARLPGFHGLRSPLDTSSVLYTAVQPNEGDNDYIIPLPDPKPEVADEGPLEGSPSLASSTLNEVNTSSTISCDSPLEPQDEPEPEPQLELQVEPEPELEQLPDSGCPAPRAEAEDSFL
To be noted: read-out: % Control; for remaining binding at 1 µM: 1000 nM.
Text: as §1, §2

Test [6] deals with T5, YSK4 (Homo sapiens, UniProt Q56UN5).
T5 construct: purchased DiscoverX (scanMAX panel)
T5 sequence (Q56UN5 1-1328): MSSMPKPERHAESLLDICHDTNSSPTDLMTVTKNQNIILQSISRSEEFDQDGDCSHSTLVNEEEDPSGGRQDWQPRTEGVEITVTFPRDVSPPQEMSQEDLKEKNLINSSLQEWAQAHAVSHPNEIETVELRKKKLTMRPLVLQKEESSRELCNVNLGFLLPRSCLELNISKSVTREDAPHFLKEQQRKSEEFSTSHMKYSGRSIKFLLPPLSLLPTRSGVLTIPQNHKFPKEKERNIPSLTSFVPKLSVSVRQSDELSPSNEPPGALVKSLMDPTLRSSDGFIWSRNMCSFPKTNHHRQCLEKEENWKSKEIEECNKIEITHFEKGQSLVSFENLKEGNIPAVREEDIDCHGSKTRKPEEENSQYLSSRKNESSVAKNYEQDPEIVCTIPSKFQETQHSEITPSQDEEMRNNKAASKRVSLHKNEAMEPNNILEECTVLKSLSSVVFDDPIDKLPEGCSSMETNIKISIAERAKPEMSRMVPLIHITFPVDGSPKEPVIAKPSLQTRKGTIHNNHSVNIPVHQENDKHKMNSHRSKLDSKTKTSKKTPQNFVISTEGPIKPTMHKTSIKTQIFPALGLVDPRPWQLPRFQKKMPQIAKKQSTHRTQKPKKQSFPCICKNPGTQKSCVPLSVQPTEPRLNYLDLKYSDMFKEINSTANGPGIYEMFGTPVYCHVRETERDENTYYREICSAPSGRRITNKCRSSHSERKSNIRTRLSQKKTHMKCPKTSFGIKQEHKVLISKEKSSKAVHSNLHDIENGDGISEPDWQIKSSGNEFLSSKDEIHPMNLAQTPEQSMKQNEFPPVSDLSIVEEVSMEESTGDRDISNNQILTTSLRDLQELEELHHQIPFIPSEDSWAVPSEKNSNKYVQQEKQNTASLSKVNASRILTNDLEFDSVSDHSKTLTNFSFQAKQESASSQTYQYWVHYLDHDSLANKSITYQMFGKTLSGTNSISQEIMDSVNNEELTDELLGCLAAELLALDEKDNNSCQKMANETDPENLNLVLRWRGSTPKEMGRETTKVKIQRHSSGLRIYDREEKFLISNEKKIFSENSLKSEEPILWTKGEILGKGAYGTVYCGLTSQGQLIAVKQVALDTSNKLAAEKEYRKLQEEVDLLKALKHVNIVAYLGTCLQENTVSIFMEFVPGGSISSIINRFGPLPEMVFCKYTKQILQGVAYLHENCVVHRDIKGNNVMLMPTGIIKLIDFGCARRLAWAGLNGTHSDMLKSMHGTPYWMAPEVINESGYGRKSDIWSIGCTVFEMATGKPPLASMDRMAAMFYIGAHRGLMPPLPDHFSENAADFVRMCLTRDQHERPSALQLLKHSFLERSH
The conditions noted are these: read-out: % Control; for remaining binding at 1 µM: 1000 nM.
Text: as §1, §2

T1 sequence (P51451 whole entry): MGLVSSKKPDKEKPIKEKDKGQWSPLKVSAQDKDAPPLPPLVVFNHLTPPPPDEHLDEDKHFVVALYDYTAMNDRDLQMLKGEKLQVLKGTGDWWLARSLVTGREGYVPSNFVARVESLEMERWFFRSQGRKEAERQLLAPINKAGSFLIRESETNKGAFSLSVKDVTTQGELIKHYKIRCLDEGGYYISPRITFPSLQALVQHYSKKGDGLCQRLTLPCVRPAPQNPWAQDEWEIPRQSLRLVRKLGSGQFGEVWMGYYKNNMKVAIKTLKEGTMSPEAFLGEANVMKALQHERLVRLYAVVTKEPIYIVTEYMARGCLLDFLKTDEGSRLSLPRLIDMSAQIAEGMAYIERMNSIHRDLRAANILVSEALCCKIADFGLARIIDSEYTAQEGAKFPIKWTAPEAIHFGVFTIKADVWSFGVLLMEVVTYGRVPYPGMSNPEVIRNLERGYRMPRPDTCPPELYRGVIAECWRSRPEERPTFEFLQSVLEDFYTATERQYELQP

For `Cc1cc(NC(=O)[C@H](O)c2cccc(F)c2)ccc1-c1cn(C)c2ncnc(N)c12` [Compound 11, (R)-N-(4-(4-amino-7-methyl-7H-pyrrolo[2,3-d]pyrimidin-5-yl)-3-methylphenyl)-2-(3-fluorophenyl)-2-hydroxy acetamide], the remaining binding at 1 µM worked out at 19% in test [1]; 32% in test [2]; 2.6% in test [3]; 40% in test [5]; 18% in test [6]. In test [4] (1000 nM), the “% Control” value was determined as 89%.

With `Cc1nc(N)c2c(-c3ccc(NC(=O)[C@H](O)c4cccc(C(F)(F)F)c4)cc3C)cn(C)c2n1` [Compound 26], the remaining binding at 0.1 µM in test [1] (100 nM) was determined as 100%; in test [2] (100 nM) it was 100%; in test [3] (100 nM) it was 94%; in test [5] (100 nM), 100%; in test [6] (100 nM), 95%. The remaining binding at 1 µM in test [1] came out at 91%; in test [2] it was 75%; in test [3], 48%; in test [5], 11%; in test [6], 55%. Further, the “% Control” value in test [4] (100 nM) turned out to be 100%; in test [4] (1000 nM), 75%.

With `Cc1nc(N)c2c(-c3ccc(NC(=O)[C@H](O)c4cccc(F)c4)cc3C)cn(C)c2n1` [Compound 24], the remaining binding at 1 µM in test [1], in test [2], in test [3], in test [5] and in test [6] was 100% each time. Further, the “% Control” value in test [4] (1000 nM) is recorded as 100%.
